# pKi: −log10 of the molar value.
# Experiments:
# [1] = target: Sigma non-opioid intracellular receptor 1 (Cavia porcellus, UniProt Q60492); assay: Displacement of [3H](+)-pentazocine from Sigma1 receptor in Dunkin Hartley guinea pig brain membrane after 120 mins by liquid scintillation counting analysis
# [2] = Displacement of [3H]-DTG from Sigma2 receptor in Sprague-Dawley rat liver membrane after 150 mins by liquid scintillation counting analysis in presence of sigma1 blocker (+)-pentazocine; type: cell membranes
# [3] = Displacement of [3H]-DTG from Sigma2 receptor in rat brain by liquid scintillation counting analysis in presence of sigma1 blocker (+)-pentazocine; type: tissue-based
# [4] = Displacement of [3H]-DTG from Sigma2 receptor in Sprague-Dawley rat liver membrane after 150 mins by liquid scintillation counting analysis in presence of sigma1 blocker AC915; type: cell membranes
# Chain of Sigma non-opioid intracellular receptor 1 (Q60492 whole entry): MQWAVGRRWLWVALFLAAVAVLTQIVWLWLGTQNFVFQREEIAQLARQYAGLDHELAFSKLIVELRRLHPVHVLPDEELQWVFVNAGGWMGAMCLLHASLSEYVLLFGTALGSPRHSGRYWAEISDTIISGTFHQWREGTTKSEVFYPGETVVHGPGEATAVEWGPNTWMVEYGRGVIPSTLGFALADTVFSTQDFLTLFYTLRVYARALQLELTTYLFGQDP
structure (smiles),measurement,setting,value
COc1ccc(C(=O)N2CC(=O)N(C3CCCCC3)C(=O)C23CCCC3)cc1,pKi,[1],6.37
same,pKi,[2],7.01
O=C1CN(C(=O)c2ccccc2)C2(CCN(Cc3ccccc3)CC2)C(=O)N1C1CCCCC1,pKi,[1],8.14
same,pKi,[2],6.61
Cc1ccc(C(=O)N2CC(=O)N(C3CCCCC3)C(=O)C23CCN(Cc2ccccc2)CC3)cc1,pKi,[1],7.95
same,pKi,[2],6.87
Cc1ccc(C(=O)N2CC(=O)N(C3CCCCC3)C(=O)C23CCCC3)cc1,pKi,[1],6.72
same,pKi,[2],6.87
CC(C)(C)C1CCC2(CC1)C(=O)N(C1CCCCC1)C(=O)CN2C(=O)c1ccccc1 (stereo unspecified),pKi,[1],5.10
same,pKi,[2],< 5.00
COc1ccc(C(=O)N2CC(=O)N(C3CCCCC3)C(=O)C23CCN(Cc2ccccc2)CC3)cc1,pKi,[1],8.23
same,pKi,[2],6.25
Cc1ccc(C(=O)N2CC(=O)N(C3CCCCC3)C(=O)C23CCCCC3)cc1,pKi,[1],6.40
same,pKi,[2],5.66
O=C1CN(C(=O)c2ccccc2)C2(CCCC2)C(=O)N1C1CCCCC1,pKi,[1],7.10
same,pKi,[2],6.93
c1ccc(CN2CCC3(CC2)N=Nc2ccccc2N3)cc1,pKi,[3],5.37
COc1ccc(C(=O)N2CC(=O)N(C3CCCCC3)C(=O)C23CCC(C(C)(C)C)CC3)cc1 (stereo unspecified),pKi,[1],5.03
same,pKi,[2],< 5.00
COc1ccc(C(=O)N2CC(=O)N(C3CCCCC3)C(=O)C23CCCCC3)cc1,pKi,[1],5.86
same,pKi,[2],5.27
COc1ccc(C(=O)N2CC(=O)N(C3CCCCC3)C(=O)C23CCCCC3)c(OC)c1,pKi,[1],6.01
same,pKi,[2],5.50
CC(C)=CCN1CC[C@]2(C)c3cc(O)ccc3C[C@H]1[C@H]2C [(+)-PENTAZOCINE],pKi,[4],5.74
Cc1ccccc1NC(=N)Nc1ccccc1C [DITOLYLGUANIDINE],pKi,[2],7.23
O=C(CCCN1CCC(O)(c2ccc(Cl)cc2)CC1)c1ccc(F)cc1 [HALOPERIDOL],pKi,[2],7.26

# — ChEMBL document CHEMBL3804765, “One-pot synthesis and sigma receptor binding studies of novel spirocyclic-2,6-diketopiperazine derivatives” (Bioorg Med Chem Lett, 2016)
